# Data taken from US7405286B2, “Stars—A muscle-specific actin-binding protein” (The Board of Regents of the University of Texas System, priority 2002, dated 2008).
# “Also recorded” adds a separate entry of the source.
# Assays:
# SM22 promoter = test: SM22-luciferase reporter assay in transiently transfected COS cells; assay type: cell-based; conditions: for effect on SRF / SM22 promoter activation by STARS, in words (discussion): COS cells transfected with STARS
# Excerpt: STARS Expression Plasmids. STARS expression constructs were generated using the pcDNA3.1 mammalian expression vector (Invitrogen) which was modified to contain an amino-terminal Myc-tag. Constitutively active RhoA (L63) and C3 transferase in Prk5 were generously provided by Dr. Alan Hall (University College, London, United Kingdom). The SM22-luciferase reporter 1343 bp promoter has been previously described (Li et al., 1995). The smooth muscle α actin-luciferase reporter contained the 4 kb promoter region ligated into the pBL3basic vector (Promega). The ANF reporter contained the 638 bp promoter region (a generous gift from Dr. Mona Nemer, Universite de Montreal, Montreal, Quebec, Canada). The 4× cfos reporter contained four tandem copies of the cfos CArG box with flanking sequences, as described (Chang et al., 2001). CMV-lacZ (Promega) was used as an internal control for transfection efficiency.
# (§1) Transient Transfections, Reporter Assays and Immunofluorescence Microscopy. COS cells were maintained in DMEM with 10% FBS. Eighteen hours after plating, the medium was changed to serum-free medium and transfections were performed at 50% confluency using FuGENE reagent-6 (Roche Molecular Biochemicals) following manufacturer's instructions. Each transfection used 0.15 μg of plasmid DNA for the reporter assays, and 0.5-1.0 μg immunohistochemistry. Cytochalasin D 2 μM (Sigma-Aldrich), and Y-27632 75 μM (Tocris) were added directly just after transfection. Latrunculin B 0.5 μM (dissolved in 10% ethanol, Calbiochem) was added 12 hr after transfection and 10% ethanol (final concentration 0.01%) was added to control wells. Cells were harvested 36 hr after transfection and their luciferase and β-galactosidase activity were measured.
# F-actin = test: Immunofluorescence / Phalloidin-TRITC staining of transfected COS cells; assay type: cell-based; conditions: for stress fibers observed: STARS-transfected COS cells, 2 μM CD or 0.5 μM LB, data not shown; for association with F-actin / actin stress fibers / bundling of actin stress fibers: transfected COS cells, Myc-tagged proteins
# Procedure: as §1
# For measuring immunofluorescence, cells were rinsed with PBS and fixed in 4% paraformaldehyde for 10 min on ice. After rinsing with PBS, COS cells were incubated in 0.1% Triton X-100 in PBS for 5 min on ice. For rat neonatal cardiomyocytes, 1% Triton X-100 in PBS was used. Cells were blocked for 20 min at room temperature in 0.5% BSA in PBS for COS cells and in 1% BSA plus 3% goat serum in PBS for rat cardiomyocytes. Then, cells were incubated with first antibody diluted in 0.5% BSA in PBS for 30-60 min at room temperature or overnight at 4° C. Anti c-myc monoclonal antibody 9E10 (Santa Cruz) was used at a 1:200 dilution. Other antibodies were anti α-actinin monoclonal antibody (1:400; Sigma-Aldrich), α-tubulin antibody (1:2000; Sigma-Aldrich) and anti-vimentin antibody (1:500; Sigma-Aldrich). Secondary antibodies were anti mouse/rabbit IgG FITC or Texas red (Vector) used at a 1:200 dilution incubated with or without Phalloidin-TRITC (1:500; Sigma Aldrich).
# actin = test: Co-immunoprecipitation of Myc-tagged proteins with actin in COS cells; assay type: binding; conditions: anti-Myc immunoprecipitation, anti-actin Western blot
# Procedure: Western Blot and Co-immunoprecipitation Assay. Immunoprecipitation and western blot analysis was performed as described previously (Lu et al., 2000). For immunoprecipitation, cells were incubated with 1 μg anti c-myc polyclonal antibody A14 (Santa Cruz). Western blots were performed with anti-actin monoclonal antibody C4 (1:100; Roche Molecular Biochemicals) or anti c-myc monoclonal antibody 9E10 (1:1000; Santa Cruse) followed by incubation with secondary antibody HRP-conjugated anti mouse-IgG (Santa Cruse, Vector). To detect signals, blots were incubated with ECL (Santa Cruz) for 1 min, and exposed to film (Eastman Kodak Co).
molecule,measurement,setting,value
"C=C1[C@@H](C)[C@H]2[C@H](Cc3ccccc3)NC(=O)[C@]23[C@H](OC(C)=O)/C=C/[C@@](C)(O)C(=O)[C@@H](C)C/C=C/[C@H]3[C@@H]1O [CD, cytochalasin D, reference compound]",increase of SM22 promoter activity by the agent itself,"SM22 promoter; COS cells, 2 μM CD, without STARS",8 fold
same,stress fibers observed,F-actin,only short fragments of disrupted stress fibers
"C/C1=C/C(=O)O[C@@H]2C[C@@H](CC[C@H](C)/C=C\CC1)O[C@@](O)([C@@H]1CSC(=O)N1)C2 [LB, latrunculin B, reference compound]","effect on SRF / SM22 promoter activation by STARS, in words (discussion)",SM22 promoter,inhibit the activity of STARS
same,SM22-luciferase activity under LB treatment,"SM22 promoter; COS cells, 0.5 μM LB, even in cells transfected with STARS",abolished
same,stress fibers observed,F-actin,only short fragments of disrupted stress fibers
"C[C@@H](N)[C@H]1CC[C@H](C(=O)Nc2ccncc2)CC1 [Y-27632, reference compound]","effect on SRF / SM22 promoter activation by STARS, in words (discussion)",SM22 promoter,only partially inhibits
same,"effect on SRF / SM22 promoter activation by STARS, in words (discussion)",SM22 promoter; listed as Y27632,decreased SM22 promoter activity significantly
same,reduction of the stimulatory activity of STARS on the SM22 promoter,"SM22 promoter; COS cells, Y-27632 75 μM",55%
"RhoA L63: constitutively active RhoA mutant, expression vector [reference compound]",activation of the SM22 promoter,"SM22 promoter; COS cells, STARS and RhoA L63 together",higher levels
same,activation of the SM22 promoter,"SM22 promoter; COS cells, STARS or RhoA (L63) expression vector alone",comparable levels
"C96: STARS deletion mutant within the conserved region (protein, left off: small tags and cut ends, STARS deletion mutant within the conserved region) HKGDEGYGRPKEGTKTAERAKRAEEHIYREMMDMCFIICTMARHRRDGKIQVTFGDLFDRYVRISDKVVGILMRARKHGLVDFEGEMLWQGRDDHV",association with F-actin / actin stress fibers,F-actin,did not affect the association with F-actin; also recorded: just associates with actin stress fibers
same,bundling of actin stress fibers,F-actin,abolished the ability of STARS to bundle actin stress fibers
"Del234-279: larger internal STARS deletion mutant within the conserved region (protein, left off: small tags and cut ends, larger internal STARS deletion mutant within the conserved region) MAPGEKESGEGPAKSALRKIRTATLVISLARGWQQWANENSIRQAQEPTGWLPGGTQDSPQAPKPITPPTSHQKAQSAPKSPPRLPEGHGDGQSSEKAPEVSHIKKKEVSKTVVSKTYERGGDVSHLSHRYERDAGVLEPGQPENDIDRILHSHGSPTRRRKCANLVSELTKGWRVMEQEEPTWRSDSVDTEDSGYGGEAEERPEQDGVQVAVVRIKRPLPSQVNRFTEKLNCHKGDEGYGRPKEGTKTAERAKRAEEHIYREMMDMCFIICTMARHRRDGKIQVTFGDLFDRYVRISDKVVGILMRARKHGLVDFEGEMLWQGRDDHV",association with F-actin / actin stress fibers,F-actin,able to associate with F-actin
same,bundling of actin stress fibers,F-actin,lost the ability to bundle actin fibers
same,co-immunoprecipitation with actin,actin,failed to co-immunoprecipitate
"N346: STARS deletion mutant lacking residues from the carboxy-terminus into the conserved region (protein, left off: small tags and cut ends, STARS deletion mutant lacking residues from the carboxy-terminus into the conserved region) MAPGEKESGEGPAKSALRKIRTATLVISLARGWQQWANENSIRQAQEPTGWLPGGTQDSPQAPKPITPPTSHQKAQSAPKSPPRLPEGHGDGQSSEKAPEVSHIKKKEVSKTVVSKTYERGGDVSHLSHRYERDAGVLEPGQPENDIDRILHSHGSPTRRRKCANLVSELTKGWRVMEQEEPTWRSDSVDTEDSGYGGEAEERPEQDGVQVAVVRIKRPLPSQVNRFTEKLNCKAQQKYSPVGNLKGRWQQWADEHIQSQKLNPFSEEFDYELAMSTRLHKGDEGYGRPKEGTKTAERAKRAEEHIYREMMDMCFIICTMARHRRDGKIQVTFGDLFDRYVRISDK",association with F-actin / actin stress fibers,F-actin,did not affect the association with F-actin
same,bundling of actin stress fibers,F-actin,abolished the ability of STARS to bundle actin stress fibers
same,co-immunoprecipitation with actin,actin,did not bind actin
